# Molecular target: T1, P2X7 receptor (Homo sapiens, UniProt Q99572)
# T1 construct: host or cells: THP-1 cells differentiated with LPS and IFN-γ
# T1 sequence (Q99572 1-595): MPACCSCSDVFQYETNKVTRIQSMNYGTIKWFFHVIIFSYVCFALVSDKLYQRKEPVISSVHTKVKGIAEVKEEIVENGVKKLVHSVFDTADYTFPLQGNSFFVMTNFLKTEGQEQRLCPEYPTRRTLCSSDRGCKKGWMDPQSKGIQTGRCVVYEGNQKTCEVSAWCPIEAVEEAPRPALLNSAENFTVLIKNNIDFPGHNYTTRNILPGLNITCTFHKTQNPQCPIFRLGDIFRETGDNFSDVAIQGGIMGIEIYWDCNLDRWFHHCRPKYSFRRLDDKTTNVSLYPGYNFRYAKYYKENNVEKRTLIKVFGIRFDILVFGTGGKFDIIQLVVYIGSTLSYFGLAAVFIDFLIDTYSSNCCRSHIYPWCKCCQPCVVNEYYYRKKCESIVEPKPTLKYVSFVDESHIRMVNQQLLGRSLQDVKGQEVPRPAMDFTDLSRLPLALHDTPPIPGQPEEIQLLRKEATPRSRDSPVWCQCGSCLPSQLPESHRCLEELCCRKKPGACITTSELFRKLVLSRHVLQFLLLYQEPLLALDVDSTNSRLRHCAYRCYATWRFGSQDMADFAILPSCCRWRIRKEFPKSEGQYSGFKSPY
# Test: Alternate method for IL-1β release assay (differentiated THP-1 cells, BzATP-stimulated, ELISA)
# Format: cell-based
# Conditions: P2X7; 0.1 μM compound (symbols + to ++++); read-out: IL-1β % inhib @ 0.1 μM
# In short: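 After 16 h differentiation with 100 ng/mL LPS and 100 ng/mL IFN-γ plus a further 2 h LPS priming, THP-1 cells were pretreated 30 min with compound, then stimulated with 250 uM BzATP (final) for 45 min. Supernatant IL-1β measured by ELISA; percent inhibition from background-adjusted levels versus untreated cells.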
row,SMILES,inhibition at 0.1 µM
1,Cc1cc(COC(=O)N2CCc3c(ncnc3NCC34CC5CC(CC(C5)C3)C4)C2)no1 [Compound 330],0 to 25%
2,O=C(OCc1cscn1)N1CCc2c(ncnc2NCC23CC4CC(CC(C4)C2)C3)C1 [Compound 331],0 to 25%
3,FC12CC3CC(C1)CC(CNc1ncnc4c1CCN(Cc1ccc5c(c1)OCCO5)C4)(C3)C2 [Compound 332],0 to 25%
4,N#Cc1cccc(C(=O)N2CCc3c(ncnc3NCC34CC5CC(CC(F)(C5)C3)C4)C2)c1 [Compound 333],25 to 50%
5,O=C(OCCSCc1ccccc1)N1CCc2c(ncnc2NCC23CC4CC(CC(C4)C2)C3)C1 [Compound 334],25 to 50%
6,O=C(SCc1ccc(F)cc1)N1CCc2c(ncnc2NCC23CC4CC(CC(C4)C2)C3)C1 [Compound 335],0 to 25%
7,O=C(OCc1ccco1)N1CCc2c(ncnc2NCC23CC4CC(CC(C4)C2)C3)C1 [Compound 336],> 75%
8,O=C(OCc1ccccc1F)N1CCc2c(ncnc2NCC23CC4CC(CC(C4)C2)C3)C1 [Compound 337],0 to 25%
9,O=C(OCc1c(F)cccc1F)N1CCc2c(ncnc2NCC23CC4CC(CC(C4)C2)C3)C1 [Compound 338],> 75%
10,O=C(OCc1ccccc1Cl)N1CCc2c(ncnc2NCC23CC4CC(CC(C4)C2)C3)C1 [Compound 339],> 75%
11,O=C(OCc1ccoc1)N1CCc2c(ncnc2NCC23CC4CC(CC(C4)C2)C3)C1 [Compound 340],50 to 75%
12,O=C(OCC1CCCO1)N1CCc2c(ncnc2NCC23CC4CC(CC(C4)C2)C3)C1 (stereo not shown) [Compound 341],50 to 75%
13,O=C(OCc1ccccn1)N1CCc2c(ncnc2NCC23CC4CC(CC(C4)C2)C3)C1 [Compound 342],0 to 25%
14,O=C(OCc1ccncc1)N1CCc2c(ncnc2NCC23CC4CC(CC(C4)C2)C3)C1 [Compound 343],0 to 25%
15,O=C(SCc1c(F)cccc1Cl)N1CCc2c(ncnc2NCC23CC4CC(CC(C4)C2)C3)C1 [Compound 344],25 to 50%
16,Cc1nn(-c2ccccc2)nc1COC(=O)N1CCc2c(ncnc2NCC23CC4CC(CC(C4)C2)C3)C1 [Compound 345],25 to 50%
17,O=C(OCc1ncoc1-c1ccccc1)N1CCc2c(ncnc2NCC23CC4CC(CC(C4)C2)C3)C1 [Compound 346],0 to 25%
18,Cc1cc(COC(=O)N2CCc3c(ncnc3NCC34CC5CC(CC(C5)C3)C4)C2)nn1C [Compound 347],50 to 75%
19,O=C(OCc1cnccn1)N1CCc2c(ncnc2NCC23CC4CC(CC(C4)C2)C3)C1 [Compound 348],25 to 50%
20,O=C(OCc1cncs1)N1CCc2c(ncnc2NCC23CC4CC(CC(C4)C2)C3)C1 [Compound 349],0 to 25%
21,"O=C(c1cccnc1)N1CCc2c(ncnc2NCC23CC4CC(CC(O)(C4)C2)C3)C1 [Compound 350, {4-[(3-Hydroxy-adamantan-1-ylmethyl)-amino]-5,8-dihydro-6H-pyrido[3,4-d]pyrimidin-7-yl}-pyridin-3-yl-methanone]",25 to 50%
22,CC(C)[C@H](NC(=O)OC(C)(C)C)C(=O)N1CCc2c(ncnc2NCC23CC4CC(CC(C4)C2)C3)C1 [Compound 351],> 75%

# Same assay, conditions: P2X7; at 0.03 μM (asterisk symbols); read-out: IL-1β % inhib @ 0.3 μM or @ 0.03 μM
row,SMILES,inhibition at 0.03 µM
1,"CC(C)(C)OC(=O)NCC(=O)N1CCc2c(ncnc2NCC(O)C23CC4CC(CC(C4)C2)C3)C1 (stereo not shown) [Compound 707, {2-[4-(2-Adamantan-1-yl-2-hydroxy-ethylamino)-5,8-dihydro-6H-pyrido[3,4d]pyrimidin-7-yl]-2-oxo-ethyl}-carbamic acid tert-butyl ester]",50 to 75%
2,"C[C@H](NC(=O)OC(C)(C)C)C(=O)N1CCc2c(ncnc2NCC(O)C23CC4CC(CC(C4)C2)C3)C1 (stereo partly drawn) [Compound 708, {(S)-2-[4-(2-Adamantan-1-yl-2-hydroxy-ethylamino)-5,8-dihydro-6H-pyrido[3,4-d]pyrimidin-7-yl]-1-methyl-2-oxo-ethyl}-carbamic acid tert-butyl ester]",50 to 75%
3,"CC(C)(C)OC(=O)N[C@@H](Cc1ccccc1)C(=O)N1CCc2c(ncnc2NCC(O)C23CC4CC(CC(C4)C2)C3)C1 (stereo partly drawn) [Compound 709, {(S)-2-[4-(2-Adamantan-1-yl-2-hydroxy-ethylamino)-5,8-dihydro-6H-pyrido[3,4-d]pyrimidin-7-yl]-1-benzyl-2-oxo-ethyl}-carbamic acid tert-butyl ester]",0 to 25%
4,"C[C@@H](NC(=O)OC(C)(C)C)C(=O)N1CCc2c(ncnc2NCC(O)C23CC4CC(CC(C4)C2)C3)C1 (stereo partly drawn) [Compound 710, {(R)-2-[4-(2-Adamantan-1-yl-2-hydroxy-ethylamino)-5,8-dihydro-6H-pyrido[3,4-d]pyrimidin-7-yl]-1-methyl-2-oxo-ethyl}-carbamic acid tert-butyl ester]",0 to 25%
5,"CC(C)(C)OC(=O)N[C@H](Cc1ccccc1)C(=O)N1CCc2c(ncnc2NCC(O)C23CC4CC(CC(C4)C2)C3)C1 (stereo partly drawn) [Compound 711, {(R)-2-[4-(2-Adamantan-1-yl-2-hydroxy-ethylamino)-5,8-dihydro-6H-pyrido[3,4-d]pyrimidin-7-yl]-1-benzyl-2-oxo-ethyl}-carbamic acid tert-butyl ester]",0 to 25%
6,"C[C@H](N)C(=O)N1CCc2c(ncnc2NCC(O)C23CC4CC(CC(C4)C2)C3)C1 (stereo partly drawn) [Compound 713, (S)-1-[4-(2-Adamantan-1-yl-2-hydroxy-ethylamino)-5,8-dihydro-6H-pyrido[3,4-d]pyrimidin-7-yl]-2-amino-propan-1-one]",0 to 25%

# From patent US20100022531A1, “NOVEL COMPOUNDS AS P2X7 MODULATORS AND USES THEREOF” (RENOVIS, INC., priority 2005, published 2010)
